Laboratory results: US20260317357A1, “HETEROCYCLIC COMPOUNDS AS STING AGONISTS” (LigaChem Biosciences Inc., priority 2022, published 2026)

Assays:
hSTING-R232 = target: T1, hSTING-R232 (Homo sapiens, UniProt Q86WV6, H232R); assay: STING agonist activity, THP1 Dual KI-hSTING-R232 IRF luciferase reporter cells; format: cell-based; conditions: 24 hours
T1 construct: host or cells: THP1 Dual KI-hSTING-R232 (STING HAQ gene removed, R232 variant gene introduced)
Experimental: (§1) In order to evaluate the activity of the STING agonist, reporter cells from Invivogen were used. The cell lines used in the experiment were THP1 Dual™ (InvivoGen #thpd-nfis) expressing the endogenous STING variant HAQ and THP1 Dual™ KI-hSTING-R232 (InvivoGen #thpd-r232/h232) into which the STING R232 or H232 variant gene was injected after removing the STING HAQ gene. The cell lines have a luciferase reporter gene inserted below the IFN regulatory factor (IRF) promoter, and thus the activity of the IFN regulatory factor (IRF) mechanism can be evaluated through luciferase expression.
(§2) The reporter cells were plated at 9.0×10^4 cells/100 μL per well in a 96-well plate using RPMI 1640 medium (Gibco, #22400097) supplemented with 10% heat-inactivated FBS and 1×Antibiotic-Antimycotic (Gibco, #15240062), 10 μg/mL blasticidin (Gibco, #A1113902), and 100 μg/mL Zeocin (Gibco, #R25005). The plated cells were cultured at 37° C., 5% CO2 for 24 hours, and then treated with 100 μL of the serially diluted compound in each well, and then cultured at 37° C., 5% CO2 for 24 hours. After culturing, 20 μL of the cell culture medium was transferred to a 96 well white plate, and QUANTI-Luc™ (InvivoGen #rep-qlcl) was added at 50 µL/well. Using a microplate reader (Perkin Elmer), the value of the luminescence signal increased in the experimental group treated with the drug compared to the control group not treated with the drug was calculated. EC50 values were derived according to the concentration of the compound using GraphPad Prism.

human STING = target: T2, human STING (Homo sapiens, UniProt Q86WV6); assay: Direct binding potency, HUMAN STING WT BINDING KIT (Cisbio); conditions: in vitro
T2 construct: purchased Cisbio #64BDSTGPEG
T2 sequence (Q86WV6 whole entry): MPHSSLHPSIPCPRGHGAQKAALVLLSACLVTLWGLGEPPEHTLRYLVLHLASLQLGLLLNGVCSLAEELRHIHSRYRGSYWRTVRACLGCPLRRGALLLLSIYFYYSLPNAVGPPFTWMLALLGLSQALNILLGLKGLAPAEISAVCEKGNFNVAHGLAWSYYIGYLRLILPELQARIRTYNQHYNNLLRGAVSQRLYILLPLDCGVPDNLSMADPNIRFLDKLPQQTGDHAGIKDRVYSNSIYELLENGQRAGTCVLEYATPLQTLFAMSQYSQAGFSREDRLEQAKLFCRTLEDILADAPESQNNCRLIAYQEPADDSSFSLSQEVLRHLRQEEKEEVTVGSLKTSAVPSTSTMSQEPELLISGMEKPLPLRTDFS
Description: Additionally, or analysis of direct binding potency of STING agonist compounds described herein to human STING, HUMAN STING WT BINDING KIT (Cisbio, #64BDSTGPEG) was used according to the manufacturer's instruction.

[1] = Pharmacokinetics in Balb/C mouse after single IV dose; format: in vivo; conditions: 1.5 mg/kg; for AUC∞, norm / Cmax, norm: dose-normalized
Experimental: For in vivo evaluation of STING agonist compounds described herein in naïve Balb/C mouse, single doses of STING agonist compounds were given at 1.5 mg/kg intravenously into female BALB/c mice (Orientbio, South Korea) at 6-8 weeks of age. Pharmacokinetics were studied following injection of the STING agonist compounds into Balb/C mice. Plasma samples were taken at various time points and stored frozen for analysis. The plasma concentrations of the STING agonist compounds at the indicated time points were measured using a LC-MS/MS analysis method.
Briefly, 250 μL of acetonitrile (ACN) solution was added in both 50 µL of sample and 50 µL of plasma containing 10 nM Dextromethorphan (internal standard), and the solutions were mixed vigorously using a vortex mixer for 5 minutes. The samples were then spun down at 14,000 rpm, 4° C. for 5 minutes. 100 μL of supernatants were combined with 100 μL of mobile phase A (0.1% formic acid in water with 5% ACN) and mixed thoroughly. The samples were measured for the STING agonist compounds using a LC-MS/MS (Nexera LC40 (SHIMADZU) and QTRAP4500 (SCIEX)).

hSTING-H232 = target: T3, hSTING-H232 (Homo sapiens, UniProt Q86WV6); assay: STING agonist activity, THP1 Dual reporter cells with STING H232 variant; format: cell-based; conditions: IRF luciferase, 24 hours
T3 construct: host or cells: THP1 Dual KI-hSTING (STING HAQ gene removed, H232 variant gene introduced)
T3 sequence (Q86WV6 whole entry): as above
Experimental: as §1, §2

hSTING-HAQ = target: T4, hSTING-HAQ (Homo sapiens, UniProt Q86WV6, G230A/H232R/R293Q/R71H); assay: STING agonist activity, THP1 Dual reporter cells expressing endogenous STING variant HAQ; format: cell-based; conditions: IRF luciferase, 24 hours
T4 construct: expressing the endogenous STING variant HAQ; host or cells: THP1 Dual
T4 sequence (Q86WV6 whole entry R71H/G230A/H232R/R293Q): as the sequence (Q86WV6 whole entry) above, with R71H, G230A, H232R, R293Q counted along it
Experimental: as §1, §2

T1 sequence (Q86WV6 whole entry H232R): as the sequence (Q86WV6 whole entry) above, with H232R counted along it

## CCn1nc(C)cc1C(=O)Nc1nc2cc(C(N)=O)cc(OC/C=C/Cn3cc(N)cn3)c2n1C/C=C/Cn1c(NC(=O)c2cc(C)nn2CC)nc2cc(C(N)=O)cc(OCCCS(C)(=N)=O)c21 (centres unmarked) [Compound 197]
hSTING-R232
  EC50: 8.13 nM

## CCn1nc(C)cc1C(=O)Nc1nc2cc(C(N)=O)cc(OC)c2n1C/C=C/Cn1c(NC(=O)c2cc(C)nn2CC)nc2cc(C(N)=O)cc(OC/C=C/COC(=O)N(C)CCNC)c21 [Compound 221]
hSTING-R232
  EC50: 3.48 nM

## CCc1nc(C)sc1C(=O)Nc1nc2cc(C(N)=O)cc(OC/C=C/Cn3cc(N)cn3)c2n1C/C=C/Cn1c(NC(=O)c2cc(C)nn2CC)nc2cc(C(N)=O)cc(OC)c21 [Compound 155]
Human STING
  EC50: 0.4 nM
hSTING-R232
  EC50: 2.6 nM

## CCn1nc(C)cc1C(=O)Nc1nc2cc(C(N)=O)cc(OC)c2n1C/C=C/Cn1c(NC(=O)c2cc(C)nn2CC)nc2cc(C(N)=O)cc(OC/C=C/Cn3ncc4cc(N)ccc43)c21 [Compound 127]
hSTING-R232
  EC50: 0.47 nM

## CCn1nc(C)cc1C(=O)Nc1nc2cc(C(N)=O)cc(OC)c2n1C/C=C/Cn1c(NC(=O)c2cc(C)nn2CC)nc2cc(C(N)=O)cc(OC/C=C/CN3CCOCC3)c21 [Compound 13]
hSTING-R232
  EC50: 0.54 nM

## CCn1nc(C)cc1C(=O)Nc1nc2cc(C(N)=O)cc(OC)c2n1C/C=C/Cn1c(NC(=O)c2cc(C)nn2CC)nc2cc(C(N)=O)cc(OC/C=C/Cn3cc(N)c(C(=O)OC)n3)c21 [Compound 163]
hSTING-R232
  EC50: 0.96 nM

## CCn1nc(C)cc1C(=O)Nc1nc2cc(C(N)=O)cc(OC)c2n1C/C=C/Cn1c(NC(=O)c2cc(C)nn2CC)nc2cc(C(N)=O)cc(OC/C=C/Cn3cc(CN)nn3)c21 [Compound 139]
hSTING-R232
  EC50: 2.25 nM

## CCc1nc(C)oc1C(=O)Nc1nc2cc(C(N)=O)cc(OC/C=C/Cn3cc(N)cn3)c2n1C/C=C/Cn1c(NC(=O)c2cc(C)nn2CC)nc2cc(C(N)=O)cc(OC)c21 [Compound 222]
hSTING-R232
  EC50: 2.72 nM

## CCn1nc(C)cc1C(=O)Nc1nc2cc(C(N)=O)cc(OC)c2n1C/C=C/Cn1c(NC(=O)c2cc(C)nn2CC)nc2cc(C(N)=O)cc(OCCCS(C)(=N)=O)c21 (centres unmarked) [Compound 187]
hSTING-R232
  EC50: 4.13 nM

## CCn1nc(C)cc1C(=O)Nc1nc2cc(C(N)=O)cc(OC)c2n1C/C=C/Cn1c(NC(=O)c2cc(C)nn2CC)nc2cc(C(N)=O)cc(OC/C=C/CN3CCCN3)c21 [Compound 133]
Human STING
  EC50: 0.43 nM
hSTING-R232
  EC50: 0.33 nM
[1]; n = 3, plasma
  AUC(0-inf): 950 ± 110 ng·h/mL
  AUC(0-t): 920 ± 110 ng·h/mL
  C0: 4500 ± 850 ng/mL
  Cmax: 2650 ± 400 ng/mL
  AUC∞, norm: 0.63 ± 0.07 kg·h/L
  Cmax, norm: 1.76 ± 0.27 kg/L
[1]; plasma, n = 3
  clearance: 26.5 mL/min/kg
  half-life: 1.61 ± 0.02 h
[1]; plasma, n = 3, read-out: VSS
  Vd: 1.39 ± 0.21 L/kg

## CCc1nc(C)oc1C(=O)Nc1nc2cc(C(N)=O)cc(OC/C=C/Cn3cc(N)cn3)c2n1C/C=C/Cn1c(NC(=O)c2cc(C)nn2CC)nc2cc(C(N)=O)cc(OC)c21 [Compound 151]
Human STING
  EC50: 0.13 nM
hSTING-R232
  EC50: 2.21 nM

## CCn1nc(C)cc1C(=O)Nc1nc2cc(C(N)=O)cc(O)c2n1C/C=C/Cn1c(NC(=O)c2cc(C)nn2CC)nc2cc(C(N)=O)cc(OC/C=C/Cn3cc(N)cn3)c21 [Compound 69]
hSTING-R232
  EC50: 0.85 nM

## CCn1nc(C)cc1C(=O)Nc1nc2cc(C(N)=O)cc(OC)c2n1C/C=C/Cn1c(NC(=O)c2cc(C)nn2CC)nc2cc(C(N)=O)cc(OC/C=C/Cn3ncc(CN)n3)c21 [Compound 110]
hSTING-R232
  EC50: 1.36 nM

## CCn1nc(C)cc1C(=O)Nc1nc2cc(C(N)=O)cc(OC)c2n1C/C=C/Cn1c(NC(=O)c2cc(C)nn2CC)nc2cc(C(N)=O)cc(OC/C=C/COc3cccc(N)c3)c21 [Compound 95]
hSTING-R232
  EC50: 1.75 nM

## CCn1nc(C)cc1C(=O)Nc1nc2cc(C(N)=O)cc(OC)c2n1C/C=C/Cn1c(NC(=O)c2cc(C)nn2CC)nc2cc(C(N)=O)cc(OC/C=C/[C@@H]3CCCN3)c21 [Compound 120]
hSTING-R232
  EC50: 2.25 nM

## CCn1nc(C)cc1C(=O)Nc1nc2cc(C(N)=O)cc(OC)c2n1C/C=C/Cn1c(NC(=O)c2cc(C)nn2CC)nc2cc(C(N)=O)cc(OC/C=C/CC3CCNCC3)c21 [Compound 89]
hSTING-R232
  EC50: 6.97 nM

## CCn1nc(C)cc1C(=O)Nc1nc2cc(C(N)=O)cc(OC)c2n1C/C=C/Cn1c(NC(=O)c2cc(C)nn2CC)nc2cc(C(N)=O)cc(OC/C=C\CN3CCNCC3=O)c21 [Compound 43]
hSTING-R232
  EC50: 2.81 nM

## CCn1nc(C)cc1C(=O)Nc1nc2cc(C(N)=O)cc(OC)c2n1C/C=C/Cn1c(NC(=O)c2cc(C)nn2CC)nc2cc(C(N)=O)cc(OC/C=C\CN3CCOCC3)c21 [Compound 33]
hSTING-R232
  EC50: 0.93 nM

## CCc1nc(C)oc1C(=O)Nc1nc2cc(C(N)=O)cnc2n1C/C=C/Cn1c(NC(=O)c2oc(C)nc2CC)nc2cc(C(N)=O)cc(OCCCO)c21 [Comparative #2, reference compound]
hSTING-H232
  EC50: 9.5 nM
hSTING-R232
  EC50: 3.39 nM
[1]; n = 3, plasma
  AUC∞, norm: 0.05 ± 0.01 kg·h/L
  Cmax, norm: 0.16 ± 0.02 kg/L
hSTING-HAQ
  EC50: 89.4 nM

## CCn1nc(C)cc1C(=O)Nc1nc2cc(C(N)=O)cc(OC)c2n1C/C=C/Cn1c(NC(=O)c2cc(C)nn2CC)nc2cc(C(N)=O)cc(OC/C=C/CNC(=O)N3CCNCC3)c21 [Compound 147]
hSTING-R232
  EC50: 4.03 nM

## CCn1nc(C)cc1C(=O)Nc1nc2cc(C(N)=O)cc(OC)c2n1C/C=C/Cn1c(NC(=O)c2cc(C)nn2CC)nc2cc(C(N)=O)cc(OC/C=C\CN3CCC(N)CC3)c21 [Compound 38]
hSTING-R232
  EC50: 10.3 nM

## CCn1nc(C)cc1C(=O)Nc1nc2cc(C(N)=O)cc(OC)c2n1C/C=C/Cn1c(NC(=O)c2cc(C)nn2CC)nc2cc(C(N)=O)cc(OCC#CCN3CCOCC3)c21 [Compound 48]
hSTING-R232
  EC50: 0.69 nM

## CCn1nc(C)cc1C(=O)Nc1nc2cc(C(N)=O)cc(OC)c2n1C/C=C/Cn1c(NC(=O)c2cc(C)nn2CC)nc2cc(C(N)=O)cc(OC/C=C/CN)c21 [Compound 145]
hSTING-R232
  EC50: 2.23 nM

## CCn1nc(C)cc1C(=O)Nc1nc2cc(C(N)=O)cc(OC)c2n1C/C=C/Cn1c(NC(=O)c2cc(C)nn2CC)nc2cc(C(N)=O)cc(OC/C=C/Cn3cc(N)c(C(=O)O)n3)c21 [Compound 164]
hSTING-R232
  EC50: 1.04 nM

## CCn1nc(C)cc1C(=O)Nc1nc2cc(C(N)=O)cc(OC)c2n1C/C=C/Cn1c(NC(=O)c2cc(C)nn2CC)nc2cc(C(N)=O)cc(OC/C=C/CNC(=N)N)c21 [Compound 166]
hSTING-R232
  EC50: 1.17 nM

## CCn1nc(C)cc1C(=O)Nc1nc2cc(C(N)=O)cc(OC)c2n1C/C=C/Cn1c(NC(=O)c2cc(C)nn2CC)nc2cc(C(N)=O)cc(OC/C=C/CN3CCNCC3)c21 [Compound 23]
hSTING-R232
  EC50: 6.43 nM

## CCn1nc(C)cc1C(=O)Nc1nc2cc(C(N)=O)cc(OC)c2n1C/C=C/Cn1c(NC(=O)c2cc(C)nn2CC)nc2cc(C(N)=O)cc(OCC#CCn3cc(N)cn3)c21 [Compound 178]
hSTING-R232
  EC50: 0.7 nM

## CCn1nc(C)cc1C(=O)Nc1nc2cc(C(N)=O)cc(OC)c2n1C/C=C/Cn1c(NC(=O)c2cc(C)nn2CC)nc2cc(C(N)=O)cc(OC/C=C/Cn3cc(NCCC(=O)O)cn3)c21 [Compound 175]
hSTING-R232
  EC50: 3.96 nM
